{"source": "patent US7671080B2", "about": "“1-benzylindole-2-carboxamide derivatives” (N.V. Organon, priority 2005, dated 2010)", "molecular_target": "T1, human cannabinoid CB1 receptor (Homo sapiens, UniProt P21554)", "T1 construct": "expressed in transfected cells; co-transfected with AP1-luciferase reporter", "T1 sequence (P21554 whole entry)": "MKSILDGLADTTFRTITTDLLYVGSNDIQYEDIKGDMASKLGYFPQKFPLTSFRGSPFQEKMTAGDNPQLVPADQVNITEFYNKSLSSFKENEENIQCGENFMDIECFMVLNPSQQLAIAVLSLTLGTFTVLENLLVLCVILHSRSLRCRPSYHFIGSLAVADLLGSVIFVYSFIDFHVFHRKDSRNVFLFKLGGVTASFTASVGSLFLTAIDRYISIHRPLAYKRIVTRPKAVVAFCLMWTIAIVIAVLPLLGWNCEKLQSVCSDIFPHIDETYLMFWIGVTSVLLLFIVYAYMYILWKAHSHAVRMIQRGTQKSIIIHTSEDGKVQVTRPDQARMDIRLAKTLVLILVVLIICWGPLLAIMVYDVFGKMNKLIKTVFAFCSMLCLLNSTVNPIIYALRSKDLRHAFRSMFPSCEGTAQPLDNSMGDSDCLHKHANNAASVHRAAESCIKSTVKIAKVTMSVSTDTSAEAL", "experiment": "In-vitro determination of efficacy and potency at the human CB1 receptor expressed in CHO cells (AP1-luciferase reporter, antagonism of CP-55,940)", "type": "cell-based", "method": "In-Vitro Determination of Efficacy and Potency at the Human CB1 Receptor Expressed in CHO Cells\nChinese hamster ovary (CHO) cells, which stably express the human cannabinoid CB1 receptor were co-transfected with a luciferase reporter gene which is under the regulatory control of an AP1-response element (AP1 luc). The cells were suspended in commercially available DMEM/F12 nut mix without phenol red, containing penicillin/streptomycin (50 U/50 μg/ml) and fungizone (1 μg/ml) before being seeded into white walled, white bottomed 96 well plates at a density of 3×10^4 cells per well (100 μl final volume) and incubated overnight (approximately 18 hrs at 37° C., 5% CO2 in air) prior to assay.\n10 μl of each dilution was added to the relevant wells in the cell plate to give a final concentration range of 10 μM to 0.1 nM.\nPlates were incubated for 5 hours at 37° C. before addition of 100 μl LucLite reagent to each well (reconstituted as per manufacturer's instructions). Plates were sealed with Top Seal and counted on the Packard TopCount (single photon counting, 0.01 minute count time, no count delay).\nFollowing stimulation of the CB1 receptor, luciferase expression is enhanced and this can be measured as an increase in enzyme activity. This reporter system is therefore used as a functional test to evaluate the potency of antagonist compounds at the CB1 receptor. Data was analysed using curve fitting and a minimum sum of squares method to produce pEC50 values."}
{"compound": "N#Cc1ccc2c(c1)cc(C(=O)NC[C@H]1CCCC[C@@H]1O)n2Cc1cccc(OC(F)(F)F)c1", "note": "(relative stereo) [Example 34, trans-5-Cyano-1-(3-trifluoromethoxybenzyl)-1H-indole-2-carboxylic acid (2-hydroxy-cyclohexylmethyl)amide]", "values": [{"measurement": "IC50", "result": "< 1", "unit": "nM"}]}
{"compound": "CN1CCN(c2cccc(Cn3c(C(=O)NC[C@H]4CCCC[C@@H]4O)cc4cc(C#N)ccc43)c2)CC1", "note": "(relative stereo) [Example 47, trans-5-Cyano-1-[3-(4-methyl-piperazin-1-yl)-benzyl]-1H-indole-2-carboxylic acid (2-hydroxy-cyclohexylmethyl)amide]", "values": [{"measurement": "IC50", "result": "10 to 100", "unit": "nM"}]}
{"compound": "N#Cc1ccc2c(c1)cc(C(=O)N[C@@H]1CCC[C@H]1O)n2Cc1cccc(OC(F)(F)F)c1", "note": "(relative stereo) [Example 54, trans-5-Cyano-1-(3-trifluoromethoxybenzyl)-1H-indole-2-carboxylic acid (2-hydroxy-cyclopentyl)amide]", "values": [{"measurement": "IC50", "result": "1 to 10", "unit": "nM"}]}
{"compound": "CC(C)OCCCNC(=O)c1cc2cc(Cl)ccc2n1Cc1cccc(OC(F)(F)F)c1", "note": "[Example 15, 5-Chloro-1-(3-trifluoromethoxybenzyl)-1H-indole-2-carboxylic acid (3-isopropoxypropyl)amide]", "values": [{"measurement": "IC50", "result": "10 to 100", "unit": "nM"}]}
{"compound": "COc1ccc(OC(F)(F)F)cc1Cn1c(C(=O)NCC(C)(C)CO)cc2cc(C#N)ccc21", "note": "[Example 22, 5-Cyano-1-(2-methoxy-5-trifluoromethoxybenzyl)-1H-indole-2-carboxylic acid (3-hydroxy-2,2-dimethylpropyl)amide]", "values": [{"measurement": "IC50", "result": "1 to 10", "unit": "nM"}]}
{"compound": "N#Cc1ccc2c(c1)cc(C(=O)NCC1(O)CCCCC1)n2Cc1cccc(OC(F)(F)F)c1", "note": "[Example 60, 5-Cyano-1-(3-trifluoromethoxybenzyl)-1H-indole-2-carboxylic acid (1-hydroxy-cyclohexylmethyl)amide]", "values": [{"measurement": "IC50", "result": "1 to 10", "unit": "nM"}]}
{"compound": "Cc1ccc(C(F)(F)F)cc1Cn1c(C(=O)NCCC(C)(C)O)cc2cc(C#N)ccc21", "note": "[Example 64, 5-Cyano-1-(2-methyl-5-trifluoromethylbenzyl)-1H-indole-2-carboxylic acid (3-hydroxy-3-methylbutyl)amide]", "values": [{"measurement": "IC50", "result": "1 to 10", "unit": "nM"}]}
{"compound": "N#Cc1ccc2c(c1)cc(C(=O)NCC1(O)CCCC1)n2Cc1cccc(OC(F)(F)F)c1", "note": "[Example 65, 5-Cyano-1-(3-trifluoromethoxybenzyl)-1H-indole-2-carboxylic acid (1-hydroxy-cyclopentylmethyl)amide]", "values": [{"measurement": "IC50", "result": "1 to 10", "unit": "nM"}]}
{"compound": "N#Cc1ccc2c(c1)cc(C(=O)NCC1(CO)CCCC1)n2Cc1cccc(OC(F)(F)F)c1", "note": "[Example 68, 5-Cyano-1-(3-trifluoromethoxybenzyl)-1H-indole-2-carboxylic acid (1-hydroxymethyicyclopentylmethyl)amide]", "values": [{"measurement": "IC50", "result": "< 1", "unit": "nM"}]}
{"compound": "CC(O)(CCNC(=O)c1cc2cc(C#N)ccc2n1Cc1cccc(OC(F)(F)F)c1)C(F)(F)F", "note": "(stereo not shown) [Example 71, 5-Cyano-1-(3-trifluoromethoxybenzyl)-1H-indole-2-carboxylic acid (4,4,4-trifluoro-3-hydroxy-3-methylbutyl)amide]", "values": [{"measurement": "IC50", "result": "1 to 10", "unit": "nM"}]}
